Test results reported in PubChem BioAssay AID224 (DTP/NCI, 2004).
Where “and” joins values, the source holds several entries; their conditions need not be identical. Equal values may be shown once. Inconclusive results and toxic doses are left out. Starred links: 1 amine or outer side, 2 acyl side, 3 side chain; linkers in the order of their positions; H or OH if unused. Positions of bridges follow the written chain, without caps; N, C: chain ends. Non-standard residues stand in square brackets, D forms with d. Residues, ends and D or L forms follow the SMILES beside them. Chains are numbered I, II in the order given. Actinocin(9to1) = Cc1c2oc3c(C)ccc(C(=O)[*:1])c3nc-2c(C(=O)[*:2])c(N)c1=O; aThr = C[C@H](O)[C@H](N)C(=O)O; NMeV = CN[C@H](C(=O)O)C(C)C; Sar = CNCC(=O)O

Tested on: P335 leukemia ip, BDF1 mice, survival T/C %
Assay: NCI In Vivo Anticancer Drug Screen. Data for tumor model P335 Leukemia (intraperitoneal) in B6D2F1 (BDF1) mice
Conditions: endpoint: mean survival time, higher = longer survival
Procedure: The antitumor activity of compounds was measured in mice bearing transplantable tumors. Survival or tumor size were measured and the results are expressed as the measurement made in the treated group (T) divided by the measurement made in the vehicle treated control group (C). The tumor model used in this assay is P335 Leukemia (intraperitoneal) in B6D2F1 (BDF1) mice

For `Cc1c2oc3c(C)ccc(C(=O)N[C@@H]4C(=O)N[C@H](C(C)C)C(=O)N5CCC[C@H]5C(=O)N(C)CC(=O)N(C)[C@@H](C(C)C)C(=O)O[C@H]4C)c3nc-2c(C(=O)N[C@@H]2C(=O)N[C@H](C(C)C)C(=O)N3CCC[C@H]3C(=O)N(C)CC(=O)N(C)[C@@H](C(C)C)C(=O)O[C@H]2C)c(N)c1=O` (I: [aThr][dV]P[Sar][NMeV] / II: [aThr][dV]P[Sar][NMeV]; ester I:1-I:C, II:1-II:C; linker I:N-II:N via Actinocin(9to1)), the T/C (dose: 0.8 micrograms/kg/injection, schedule: Q01DX Z (ip), vehicle: saline) was 106 % of control, the T/C (dose: 1.6 micrograms/kg/injection, schedule: Q01DX Z (ip), vehicle: saline) was 106 % of control and the T/C (dose: 2.5 micrograms/kg/injection, schedule: Q01DX Z (ip), vehicle: saline) was 96 % of control. For the same compound, the T/C (dose: 4.9 micrograms/kg/injection, schedule: Q01DX Z (ip), vehicle: saline) was 102 % of control, the T/C (dose: 6.4 micrograms/kg/injection, schedule: Q01DX Z (ip), vehicle: saline) was 120 % of control and the T/C (dose: 9.8 micrograms/kg/injection, schedule: Q01DX Z (ip), vehicle: saline) was 98 % of control. For the same compound, the T/C (dose: 19.5 micrograms/kg/injection, schedule: Q01DX Z (ip), vehicle: saline) was 88 % of control, the T/C (dose: 38.9 micrograms/kg/injection, schedule: Q01DX Z (ip), vehicle: saline) was 122 % of control and the T/C (dose: 51.2 micrograms/kg/injection, schedule: Q01DX Z (ip), vehicle: saline) was 115 % of control. For the same compound, the T/C (dose: 102.4 micrograms/kg/injection, schedule: Q01DX Z (ip), vehicle: saline) was 103 % of control.

For `N=[N+]=CC(=O)OCC(N)C(=O)O` (stereo not given), the T/C (dose: 1.18 mg/kg/injection, schedule: Q01DX Z (ip), vehicle: saline) was 101 % of control, the T/C (dose: 2.35 mg/kg/injection, schedule: Q01DX Z (ip), vehicle: saline) was 122 % of control and the T/C (dose: 4.69 mg/kg/injection, schedule: Q01DX Z (ip), vehicle: saline) was 122 % of control. For the same compound, the T/C (dose: 25.0 mg/kg/injection, schedule: Q01DX Z (ip), vehicle: saline) was 106 % of control and the T/C (dose: 50.0 mg/kg/injection, schedule: Q01DX Z (ip), vehicle: saline) was 94 % of control.

For `CC/C(=C(/CC)c1ccc(O)cc1)c1ccc(O)cc1`, the T/C (dose: 15.6 mg/kg/injection, schedule: Q01DX Z (sc), vehicle: steriod suspending solution) was 91 % of control.

In the case of `COc1ccc(/C=N/NC(N)=S)cc1`, the T/C (dose: 18.75 mg/kg/injection, schedule: Q01DX Z (ip), vehicle: carboxymethylcellulose (CMC)) is reported as 115 % of control, the T/C (dose: 37.5 mg/kg/injection, schedule: Q01DX Z (ip), vehicle: carboxymethylcellulose (CMC)) is reported as 108 % of control and the T/C (dose: 75.0 mg/kg/injection, schedule: Q01DX Z (ip), vehicle: carboxymethylcellulose (CMC)) is reported as 106 % of control. For the same compound, the T/C (dose: 150.0 mg/kg/injection, schedule: Q01DX Z (ip), vehicle: carboxymethylcellulose (CMC)) was 96 % of control, the T/C (dose: 300.0 mg/kg/injection, schedule: Q01DX Z (ip), vehicle: carboxymethylcellulose (CMC)) was 115 % of control and the T/C (dose: 300.0 mg/kg/injection, schedule: Q01DX Z (ip), vehicle: saline) was 94 % of control. The T/C (dose: 600.0 mg/kg/injection, schedule: Q01DX Z (ip), vehicle: saline) was 96 % of control.

With `Nc1ncnc2[nH]ncc12` the T/C (dose: 6.25 mg/kg/injection, schedule: Q01DX Z (ip), vehicle: carboxymethylcellulose (CMC)) was 89 % of control and the T/C (dose: 12.5 mg/kg/injection, schedule: Q01DX Z (ip), vehicle: carboxymethylcellulose (CMC)) was 92 % of control.

For `CCN(CC)C(=S)S`, the T/C (dose: 125.0 mg/kg/injection, schedule: Q01DX Z (ip), vehicle: other) was 92 % of control, the T/C (dose: 250.0 mg/kg/injection, schedule: Q01DX Z (ip), vehicle: other) was 105 % of control and the T/C (dose: 500.0 mg/kg/injection, schedule: Q01DX Z (ip), vehicle: other) was 106 % of control. The T/C (dose: 500.0 mg/kg/injection, schedule: Q01DX Z (ip), vehicle: water) was 102 % of control, the T/C (dose: 1000.0 mg/kg/injection, schedule: Q01DX Z (ip), vehicle: other) was 103 % of control and the T/C (dose: 1000.0 mg/kg/injection, schedule: Q01DX Z (ip), vehicle: water) was 120 % of control.

With `O=NN(CCCl)C(=O)NCCCl` the T/C (dose: 16.0 mg/kg/injection, schedule: Q01DX Z (ip), vehicle: saline) was 95 % of control.

With `N[C@@H](Cc1ccc(N(CCCl)CCCl)cc1)C(=O)O` the T/C (dose: 1.25 mg/kg/injection, schedule: Q01DX Z (ip), vehicle: saline) was 168 % of control, the T/C (dose: 2.5 mg/kg/injection, schedule: Q01DX Z (ip), vehicle: saline) was 169 % of control and 195 % of control and the T/C (dose: 5.0 mg/kg/injection, schedule: Q01DX Z (ip), vehicle: saline) was 106 % of control.
